Like-named read-outs stand apart in the source and are kept apart here.
What was measured:
[1] = biological target: T1, cyclooxygenase (Mus musculus, UniProt P22437); assay: inhibition of arachidonic acid metabolism via the cyclooxygenase route (Brune et al.); assay type: biochemical; details: read-out: % inhibition of cyclooxygenase at 1 × 10^-5 mol/l
T1 construct: endogenous in cells
T1 sequence (P22437 27-602): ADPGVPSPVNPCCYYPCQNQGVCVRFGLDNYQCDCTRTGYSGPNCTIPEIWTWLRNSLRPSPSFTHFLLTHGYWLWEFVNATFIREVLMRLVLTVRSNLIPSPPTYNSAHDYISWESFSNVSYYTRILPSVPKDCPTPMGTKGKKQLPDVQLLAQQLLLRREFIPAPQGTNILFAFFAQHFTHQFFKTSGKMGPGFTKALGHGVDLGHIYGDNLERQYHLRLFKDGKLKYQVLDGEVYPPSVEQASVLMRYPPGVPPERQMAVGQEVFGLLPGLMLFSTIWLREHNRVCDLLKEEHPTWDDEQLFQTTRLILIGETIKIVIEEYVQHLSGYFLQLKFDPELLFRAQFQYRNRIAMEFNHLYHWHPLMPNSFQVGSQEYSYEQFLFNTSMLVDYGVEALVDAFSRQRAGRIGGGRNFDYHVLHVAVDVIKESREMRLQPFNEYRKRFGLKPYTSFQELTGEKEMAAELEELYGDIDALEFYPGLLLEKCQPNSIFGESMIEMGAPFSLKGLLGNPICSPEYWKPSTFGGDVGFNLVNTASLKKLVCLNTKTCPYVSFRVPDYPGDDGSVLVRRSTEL

[2] = biological target: T2, lipoxygenase (Rattus norvegicus, UniProt P12527); assay: inhibition of arachidonic acid metabolism via the lipoxygenase route: LTB4 release from PMN of the rat after stimulation with Ca ionophor, reverse phase HPLC; assay type: cell-based; details: read-out: % inhibition of lipoxygenase at 1 × 10^-5 mol/l
T2 construct: release of LTB4 from neutrophilic granulocytes (PMN) of the rat; endogenous in cells; host or cells: rat neutrophilic granulocytes (PMN)
T2 sequence (P12527 1-673): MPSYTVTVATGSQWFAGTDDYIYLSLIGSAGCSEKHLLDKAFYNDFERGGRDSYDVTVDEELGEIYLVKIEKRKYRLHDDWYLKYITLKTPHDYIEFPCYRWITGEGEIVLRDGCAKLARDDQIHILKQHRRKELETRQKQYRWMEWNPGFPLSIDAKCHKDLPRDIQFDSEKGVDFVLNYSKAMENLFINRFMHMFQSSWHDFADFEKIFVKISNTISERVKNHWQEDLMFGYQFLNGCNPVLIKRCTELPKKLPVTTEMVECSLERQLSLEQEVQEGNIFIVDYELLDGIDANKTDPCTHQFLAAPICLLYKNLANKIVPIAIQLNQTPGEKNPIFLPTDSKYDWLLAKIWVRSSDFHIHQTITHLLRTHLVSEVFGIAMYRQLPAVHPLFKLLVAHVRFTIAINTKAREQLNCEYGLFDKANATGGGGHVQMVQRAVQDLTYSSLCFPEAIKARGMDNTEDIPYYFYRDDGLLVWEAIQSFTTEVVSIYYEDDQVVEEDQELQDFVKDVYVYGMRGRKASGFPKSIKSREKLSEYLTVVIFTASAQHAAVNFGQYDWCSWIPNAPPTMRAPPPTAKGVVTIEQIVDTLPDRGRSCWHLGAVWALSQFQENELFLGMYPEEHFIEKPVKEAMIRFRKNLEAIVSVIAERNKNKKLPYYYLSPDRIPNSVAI

[3] = test system: oedema induced by carrageenan in the rat paw; assay: inhibition of carrageenan-induced oedema in the rat paw (Winter et al., modified); assay type: in vivo; details: po, read-out: % inhibition of carrageenan oedema at 2.5 mg/kg orally
[4] = test system: PMN; assay: inhibition of aggregation of PMN stimulated by LTB4 (Cunningham et al.); assay type: cell-based; details: 1 × 10^-4 mol/l
[5] = 1 × 10^-5 mol/l, LTB4 release from rat PMN, Ca ionophor
[6] = rat paw, 2.5 mg/kg orally, λ-carrageenan 0.25% suspension in physiological saline

In the case of `O=C1C=C(O)C(=O)c2ccccc21` [Compound 1], the inhibition at 10 µM [1] is reported as 31%, the inhibition at 10 µM [2] is reported as 70% and the inhibition in vivo at 2.5 mg/kg ([3]; Rattus norvegicus) is reported as 34%.

Work on `COC1=CC(=O)c2ccccc2C1=O` [Compound 2] yielded an inhibition at 10 µM [1] of 78%, an inhibition at 10 µM [2, 5] of 98% and an inhibition at 100 µM [4] of 76%. The inhibition in vivo at 2.5 mg/kg [3, 6] was 29%.

In the case of `COCCOC1=CC(=O)c2ccccc2C1=O` [Compound 3], the inhibition at 10 µM [1] is reported as 45%, the inhibition at 10 µM [2, 5] is reported as 100% and the inhibition in vivo at 2.5 mg/kg [3, 6] is reported as 38%.

Work on `COC1=C(OC)C(=O)c2ccccc2C1=O` [Compound 4] yielded an inhibition at 10 µM [1] of 37%, an inhibition at 10 µM [2, 5] of 100% and an inhibition at 100 µM [4] of 79%. For the same compound, the inhibition in vivo at 2.5 mg/kg [3, 6] was 36%.

`NC1=CC(=O)c2ccccc2C1=O` [Compound 5] gave an inhibition at 10 µM [1] of 55%, an inhibition at 10 µM [2] of 100% and an inhibition in vivo at 2.5 mg/kg ([3]; Rattus norvegicus) of 48%.

Compound `NC1=CC(=O)c2cc(S(N)(=O)=O)ccc2C1=O` [Compound 6] has an inhibition at 10 µM [1] of 65%, an inhibition at 10 µM [2, 5] of 100% and an inhibition at 100 µM [4] of 77%. For the same compound, the inhibition in vivo at 2.5 mg/kg [3, 6] was 39%.

`CC(=O)NC1=CC(=O)c2ccccc2C1=O` [Compound 7] gave an inhibition at 10 µM [1] of 65%, an inhibition at 10 µM [2, 5] of 100% and an inhibition at 100 µM [4] of 49%. For the same compound, the inhibition in vivo at 2.5 mg/kg [3, 6] was 32%.

In the case of `CC1=C(SCC(=O)O)C(=O)c2ccccc2C1=O` [Compound 8], the inhibition at 10 µM [1] is reported as 72%, the inhibition at 10 µM [2, 5] is reported as 100% and the inhibition at 100 µM [4] is reported as 34%. For the same compound, the inhibition in vivo at 2.5 mg/kg [3, 6] was 41%.

In the case of `CNC(=O)CSC1=C(C)C(=O)c2ccccc2C1=O` [Compound 9], the inhibition at 10 µM [1] is reported as 89%, the inhibition at 10 µM [2, 5] is reported as 100% and the inhibition at 100 µM [4] is reported as 100%. It also gave an inhibition in vivo at 2.5 mg/kg [3, 6] of 25%.

Work on `CC1=C(SCC(=O)NC(C)C)C(=O)c2ccccc2C1=O` [Compound 10] yielded an inhibition at 10 µM [1] of 89%, an inhibition at 10 µM [2, 5] of 100% and an inhibition at 100 µM [4] of 95%. For the same compound, the inhibition in vivo at 2.5 mg/kg [3, 6] was 45%.

Compound `O=C(CSC1=C(SCC(=O)NCCO)C(=O)c2ccccc2C1=O)NCCO` [Compound 11] has an inhibition at 10 µM [1] of 50%, an inhibition at 10 µM [2, 5] of 80% and an inhibition at 100 µM [4] of 36%. The inhibition in vivo at 2.5 mg/kg [3, 6] was 45%.

Work on `C=CCNC1=CC(=O)c2cc(S(N)(=O)=O)ccc2C1=O` [Compound 12, 2-Allylamino-6-sulphamoyl-1,4-naphthoquinone] yielded an inhibition at 10 µM [1] of 38%, an inhibition at 10 µM [2, 5] of 100% and an inhibition at 100 µM [4] of 72%. For the same compound, the inhibition in vivo at 2.5 mg/kg [3, 6] was 39%.

`CCC(=O)NC1=C(OCCOC)C(=O)c2ccccc2C1=O` [Compound 13, 2-Propionylamino-3-(2-methoxyethoxy)-1,4-naphthoquinone] showed an inhibition at 10 µM [2, 5] of 100% and an inhibition in vivo at 2.5 mg/kg [3, 6] of 48%.

With `CCOC1=C(NC(C)=O)C(=O)c2ccccc2C1=O` [Compound 14, 2-Acetylamino-3-ethoxy-1,4-naphthoquinone] the inhibition at 10 µM [2, 5] was 100% and the inhibition in vivo at 2.5 mg/kg [3, 6] was 49%.
